# Laboratory results taken from PMC10767194 (The Journal of Biological Chemistry, 2023).
# Like-named read-outs stand apart in the source and are kept apart here.
# Assays:
# DYRK1A = system: T1, DYRK1A; test: radioactive in vitro kinase assay, DYRK1A; assay type: biochemical, human; conditions: 0, 0.1, 1, 10, 100 μM compound, 0.2 μM kinase, 0.2 mM ATP
# T1 construct: The kinase domain of human DYRK1A (residues 126–485, UniProt Q13627); made in house; host or cells: E. coli BL21 pLysS
# Protocol: (§1) Radioactive kinase activity assays were performed in a total volume of 15 μl per sample in kinase assay buffer (50 mM Hepes/pH 7.6, 34 mM KCl, 7 mM MgCl2, 5 mM β-glycerol phosphate, and 2.5 mM dithioerythritol). Preincubation of 0.2 μM or 0.02 μM recombinant protein kinase with indicated concentrations of respective inhibitor and 0.2 to 2 mM ATP containing 0.45 mCi [^32P]-γ-ATP/ml (PerkinElmer) was carried out for 5 min. Kinase reactions were started by addition of substrate protein (10 μM GST-Rb1 for Cdk4/CycD3, 10 μM GST-CTD[52] for Cdk7/CycH/MAT1, 50 μM His-c-Myc for all others) and incubated for 20 min at 30 °C in a shaking incubator at 300 rpm. For pS7-CTD[3] peptide, the substrate concentration was increased to 100 μM and assays were performed for 60 min. Reactions were terminated by the addition of EDTA to a final concentration of 50 mM. […] Radioactive counts were determined in a Beckman Liquid Scintillation Counter (Beckman Coulter) for 1 min. […] IC50 values were extracted from triplicate measurements by sigmoidal curve fitting using DataGraph (v. 5.0; https://www.visualdatatools.com/DataGraph/) or were determined by applying the Morrison quadratic equation for tight binding inhibitors using GraphPad Prism 10 (https://www.graphpad.com/) ([40]).
# Cdk13/CycK [1] = target: T2, Cdk13/CycK (Homo sapiens, UniProt Q14004); test: nanoDSF thermal protein stability, Cdk13/CycK; assay type: binding; conditions: 5 μM protein
# T2 construct: The kinase domain of human Cdk13 (residues 694–1039, UniProt Q14004); made in house; host or cells: Sf9 insect cells, co-expressed with CAK1
# T2 sequence (Q14004 694-1039): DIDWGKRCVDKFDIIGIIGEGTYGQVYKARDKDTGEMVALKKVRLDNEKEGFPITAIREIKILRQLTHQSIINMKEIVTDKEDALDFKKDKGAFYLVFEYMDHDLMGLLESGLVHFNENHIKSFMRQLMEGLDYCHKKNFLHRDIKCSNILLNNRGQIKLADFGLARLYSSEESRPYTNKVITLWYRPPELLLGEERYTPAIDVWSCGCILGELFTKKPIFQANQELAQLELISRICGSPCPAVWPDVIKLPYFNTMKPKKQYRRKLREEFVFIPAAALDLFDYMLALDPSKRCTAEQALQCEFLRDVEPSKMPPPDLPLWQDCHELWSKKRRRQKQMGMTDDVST
# T2 sequence (O75909 1-267 partner limits assumed): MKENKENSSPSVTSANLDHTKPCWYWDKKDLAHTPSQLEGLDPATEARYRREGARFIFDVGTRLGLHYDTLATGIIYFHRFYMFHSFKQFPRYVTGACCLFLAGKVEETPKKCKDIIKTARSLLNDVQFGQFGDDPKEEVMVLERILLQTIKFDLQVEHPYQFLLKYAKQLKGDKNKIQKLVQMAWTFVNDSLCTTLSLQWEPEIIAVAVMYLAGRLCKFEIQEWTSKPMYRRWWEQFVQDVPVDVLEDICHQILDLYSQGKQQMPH
# Protocol: (§2) At 10 μM concentration, the thermal shift observed was +4.7 °C, while at 100 μM the thermal stability was increased by +6.2 °C (Table S2) compared to a DMSO control. Together, the results obtained from both SPR and nanoDSF measurements align well with the IC50 values determined for Cdk12∗/CycK and Cdk13∗/CycK kinases.
# (§3) For identification of thermal protein stability, nanoDSF experiments were conducted using a Prometheus NT.48 (NanoTemper) instrument. […] at the wavelengths λ = 330 and 350 nm were monitored at an excitation power of 25% in a temperature range from 20 to 90 °C with a slope of 1.5 °C/min. The measurement was conducted and evaluated with the PR.ThermControl software (https://nanotempertech.com/prometheus/nt48-software/). Experiments were conducted in duplicates.
# Cdk10/CycQ = target: T3, Cdk10/CycQ (Homo sapiens, UniProt Q15131); test: radioactive in vitro kinase assay, Cdk10/CycQ; assay type: biochemical; conditions: 0.2 mM ATP
# T3 construct: Full-length, human, WT Cdk10 (residues 1–360, UniProt Q15131); made in house; host or cells: Sf9 insect cells
# T3 sequence (Q15131 whole entry, the tested form may be a part): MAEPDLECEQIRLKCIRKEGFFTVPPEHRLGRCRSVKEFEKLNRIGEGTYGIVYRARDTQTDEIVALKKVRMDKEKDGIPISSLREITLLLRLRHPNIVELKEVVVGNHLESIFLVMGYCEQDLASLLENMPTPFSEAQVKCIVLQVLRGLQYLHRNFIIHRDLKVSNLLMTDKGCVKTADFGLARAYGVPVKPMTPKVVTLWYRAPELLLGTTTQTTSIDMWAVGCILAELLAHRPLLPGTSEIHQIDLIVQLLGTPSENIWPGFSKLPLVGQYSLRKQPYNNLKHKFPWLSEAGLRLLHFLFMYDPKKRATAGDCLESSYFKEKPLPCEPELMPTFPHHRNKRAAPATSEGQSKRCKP
# T3 sequence (Q8N1B3 whole entry partner, the tested form may be a part): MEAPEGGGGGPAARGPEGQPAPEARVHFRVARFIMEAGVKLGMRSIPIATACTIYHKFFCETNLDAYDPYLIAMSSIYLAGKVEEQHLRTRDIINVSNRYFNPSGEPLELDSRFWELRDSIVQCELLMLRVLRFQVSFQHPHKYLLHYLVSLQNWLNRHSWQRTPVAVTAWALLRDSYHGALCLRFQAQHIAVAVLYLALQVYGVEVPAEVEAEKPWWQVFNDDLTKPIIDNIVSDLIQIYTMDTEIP
# Protocol: as §1
# Cdk13/CycK [2] = target: T2, Cdk13/CycK; test: radioactive in vitro kinase assay, Cdk13/CycK; assay type: biochemical
# Protocol: To a concentration of 0.2 μM kinase and 0.2 mM ATP, a compound concentration ranging from 0.1 nM to 1 mM was applied. Kinase reactions were started by the addition of 100 μM CTD peptide containing three hepta-repeats continuously prephosphorylated at position S7 (pS7-CTD[3]) and terminated after 60 min incubation time. In vitro IC50-values were determined by applying a sigmoidal fit to dose-response measurements (Fig. 1A). […] The Michaelis–Menten constants (KM) for ATP were determined as 17.5 μM for Cdk12/CycK and 12.6 μM for Cdk13/CycK, respectively. […] These values are in accordance with the values derived from sigmoidal curve fitting.
# Radioactive kinase activity assays were performed in a total volume of 15 μl per sample in kinase assay buffer (50 mM Hepes/pH 7.6, 34 mM KCl, 7 mM MgCl2, 5 mM β-glycerol phosphate, and 2.5 mM dithioerythritol). […] Radioactive counts were determined in a Beckman Liquid Scintillation Counter (Beckman Coulter) for 1 min. […] IC50 values were extracted from triplicate measurements by sigmoidal curve fitting using DataGraph (v. 5.0; https://www.visualdatatools.com/DataGraph/) or were determined by applying the Morrison quadratic equation for tight binding inhibitors using GraphPad Prism 10 (https://www.graphpad.com/) ([40]).
# Cdk12/CycK [3] = target: T4, Cdk12/CycK (Homo sapiens, UniProt Q9NYV4); test: nanoDSF thermal protein stability, Cdk12/CycK; assay type: binding; conditions: 5 μM protein
# T4 construct: GST (TEV site) (N, cleaved yes); made in house; host or cells: Sf9 insect cells, co-expressed with S. cerevisiae CAK1
# T4 sequence (Q9NYV4 714-1063): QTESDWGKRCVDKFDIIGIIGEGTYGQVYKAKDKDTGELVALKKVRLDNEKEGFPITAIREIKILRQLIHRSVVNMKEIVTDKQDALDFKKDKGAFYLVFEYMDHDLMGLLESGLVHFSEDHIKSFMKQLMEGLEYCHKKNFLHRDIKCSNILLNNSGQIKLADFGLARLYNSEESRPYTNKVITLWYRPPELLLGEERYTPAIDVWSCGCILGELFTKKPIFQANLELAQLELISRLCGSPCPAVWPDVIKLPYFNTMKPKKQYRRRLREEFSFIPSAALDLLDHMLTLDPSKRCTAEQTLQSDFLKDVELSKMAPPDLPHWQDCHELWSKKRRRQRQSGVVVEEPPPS
# T4 sequence (O75909 1-267 partner limits assumed): as the sequence (O75909 1-267 partner limits assumed) above
# Protocol: as §2, §3
# Cdk7/CycH = system: T5, Cdk7/CycH; test: radioactive in vitro kinase assay, Cdk7/CycH; assay type: biochemical, human; conditions: 0, 0.1, 1, 10, 100 μM compound, 0.2 μM kinase, 0.2 mM ATP
# T5 construct: Full-length, human, WT Cdk7 (residues 1–346, UniProt P50613); made in house; host or cells: Sf9 insect cells
# Protocol: as §1
# Cdk8/CycC = test: radioactive in vitro kinase assay, Cdk8/CycC; assay type: biochemical, human; conditions: 0, 0.1, 1, 10, 100 μM compound, 0.2 μM kinase, 0.2 mM ATP
# Protocol: as §1
# HIPK3 = system: T6, HIPK3; test: radioactive in vitro kinase assay, HIPK3; assay type: biochemical, human; conditions: 0, 0.1, 1, 10, 100 μM compound, 0.2 μM kinase, 0.2 mM ATP
# T6 construct: human HIPK3 (residues 159–562, UniProt Q9H422); made in house; host or cells: Sf9 insect cells
# Protocol: as §1
# HIPK1 = system: T7, HIPK1; test: radioactive in vitro kinase assay, HIPK1; assay type: biochemical, human; conditions: 0, 0.1, 1, 10, 100 μM compound, 0.2 μM kinase, 0.2 mM ATP
# T7 construct: human HIPK1 (residues 154–554, UniProt Q86Z02); made in house; host or cells: Sf9 insect cells
# Protocol: as §1
# Cdk12/CycK [4] = target: T4, Cdk12/CycK; test: radioactive in vitro kinase assay, Cdk12/CycK; assay type: biochemical; conditions: 0, 0.1, 1, 10, 100 μM compound, 0.2 μM Cdk12, 0.2 mM ATP, His-c-Myc, 20 min
# Protocol: To a concentration of 0.2 μM kinase and 0.2 mM ATP, a compound concentration ranging from 0.1 nM to 1 mM was applied. Kinase reactions were started by the addition of 100 μM CTD peptide containing three hepta-repeats continuously prephosphorylated at position S7 (pS7-CTD[3]) and terminated after 60 min incubation time. In vitro IC50-values were determined by applying a sigmoidal fit to dose-response measurements (Fig. 1A).
# Cdk12 kinase (0.2 μM) in the presence of 0.2 mM ATP were supplemented with respective compounds at concentrations of 0, 0.1, 1, 10, and 100 μM for 5 min. Upon addition of 50 μM His-c-Myc substrate the kinase assay reaction was conducted for 20 min.
# Radioactive kinase activity assays were performed in a total volume of 15 μl per sample in kinase assay buffer (50 mM Hepes/pH 7.6, 34 mM KCl, 7 mM MgCl2, 5 mM β-glycerol phosphate, and 2.5 mM dithioerythritol). Preincubation of 0.2 μM or 0.02 μM recombinant protein kinase with indicated concentrations of respective inhibitor and 0.2 to 2 mM ATP containing 0.45 mCi [^32P]-γ-ATP/ml (PerkinElmer) was carried out for 5 min. Kinase reactions were started by addition of substrate protein (10 μM GST-Rb1 for Cdk4/CycD3, 10 μM GST-CTD[52] for Cdk7/CycH/MAT1, 50 μM His-c-Myc for all others) and incubated for 20 min at 30 °C in a shaking incubator at 300 rpm. For pS7-CTD[3] peptide, the substrate concentration was increased to 100 μM and assays were performed for 60 min. Reactions were terminated by the addition of EDTA to a final concentration of 50 mM. Reaction samples were separately spotted onto Amersham Protran nitrocellulose membranes (GE HealthCare) and subsequently washed three times for 5 min in PBS. Samples were transferred to 4 ml liquid scintillation vials and 2 ml liquid scintillator (Ultima Gold) were added. Radioactive counts were determined in a Beckman Liquid Scintillation Counter (Beckman Coulter) for 1 min. […] For analysis of dose response measurements and IC50 value determination, data of inhibitor-supplemented samples were normalized to DMSO solvent controls and their activity plotted against the inhibitor concentration. IC50 values were extracted from triplicate measurements by sigmoidal curve fitting using DataGraph (v. 5.0; https://www.visualdatatools.com/DataGraph/) or were determined by applying the Morrison quadratic equation for tight binding inhibitors using GraphPad Prism 10 (https://www.graphpad.com/) ([40]).
# Cdk4/CycD3 = system: T8, Cdk4/CycD3; test: radioactive in vitro kinase assay, Cdk4/CycD3; assay type: biochemical, human; conditions: 0, 0.1, 1, 10, 100 μM compound, 0.2 μM kinase, 0.2 mM ATP
# T8 construct: GST (of the complex); made in house; host or cells: Sf9 insect cells
# Protocol: as §1
structure (smiles),measurement,setting,value
Cn1cc(-n2cnc3c(NCc4nc5cc(Cl)c(Cl)cc5[nH]4)nc(N4CCOCC4)nc32)cn1 [SR-4835],inhibition of DYRK1A activity,DYRK1A,not inhibited
same,"Tm, Cdk13/CycK",Cdk13/CycK [1]; 1 μM compound,54.40 °C
same,"∆Tm to DMSO control, Cdk13/CycK",Cdk13/CycK [1]; 1 μM compound,+0.25 °C
same,"Tm, Cdk13/CycK",Cdk13/CycK [1]; 10 μM compound,58.80 °C
same,"Tm, Cdk13/CycK",Cdk13/CycK [1]; 100 μM compound,60.30 °C
same,inhibition of Cdk10/CycQ activity,"Cdk10/CycQ; 0, 0.1, 1, 10, 100 μM compound, 0.2 μM kinase",moderate SR-4835 concentration dependent decrease
same,IC50,"Cdk10/CycQ; concentration range 1 nM to 1 mM, sigmoidal fit",1070 nM
same,IC50,"Cdk13/CycK [2]; 0.2 μM and 0.02 μM kinase, c-Myc substrate, Morrison quadratic equation fit, read-out: IC50 Cdk13/CycK, Morrison quadratic equation",366 to 400 nM
same,IC50,"Cdk13/CycK [2]; 0.2 μM kinase, 0.2 mM ATP, 100 μM pS7-CTD[3], 60 min, sigmoidal fit, read-out: IC50 Cdk13/CycK on pS7-CTD[3]",366 nM
same,"Tm, Cdk12/CycK",Cdk12/CycK [3]; 1 μM compound,51.45 °C
same,"∆Tm to DMSO control, Cdk12/CycK",Cdk12/CycK [3]; 1 μM compound,+0.80 °C
same,"Tm, Cdk12/CycK",Cdk12/CycK [3]; 10 μM compound,58.70 °C
same,"Tm, Cdk12/CycK",Cdk12/CycK [3]; 100 μM compound,60.45 °C
same,inhibition of Cdk7 activity,Cdk7/CycH,no inhibitory activity
same,inhibition of Cdk8 activity,Cdk8/CycC,no inhibitory activity
same,inhibition of HIPK3 activity,HIPK3,not inhibited
same,inhibition of HIPK1 activity,HIPK1,not inhibited
same,"inhibitory effect on Cdk12/CycK activity, in words",Cdk12/CycK [4],modest effects
same,inhibition of Cdk4/CycD3 activity,Cdk4/CycD3,minimal decrease in kinase activity
